{"source": "patent US20010051654A1", "about": "“Treatment of inflammatory and autoimmune diseases” (priority 1997, published 2001)", "tested_on": "actively sensitized Brown Norway rats", "test": "Allergen-induced pulmonary leukocyte accumulation in actively sensitized Brown Norway rats (3b alone)", "assay_type": "in vivo", "description": "Rats. Male Brown Norway rats were supplied by Harlan Olac Limited (Bicester, Oxon, UK) and delivered within the weight range of 180-200 g. Following acclimatization for at least five days, animals were actively sensitized over a 3-week period and were within the weight range 250-300 g at the time of allergen exposure. Food and water were provided ad libitum.\nSensitization. Ovalbumin (OA; 10 μg) mixed with aluminum hydroxide gel (10 mg) will be injected (0.5 mL, i.p.) into Brown Norway rats and repeated 7 and 14 days later.\nDrug Treatment. On day 21, sensitized rats were anaesthetized (halothane 5% in O2) and 3b, dexamethasone, or vehicle (lactose) was instilled via a cannula placed directly into the trachea at 1 hour prior to OA exposure. This procedure was repeated at 24 hours and 48 hours after OA exposure.\nChallenge. Following recovery, sensitized animals were restrained in plastic tubes and exposed (60 min) to an aerosol of OA (10 mg/mL) using a nose-only exposure system. Animals were sacrificed 72 hours later with pentobarbital (250 mg/kg i.p.).\nAnalysis. The lungs were lavaged using 3 aliquots (4 mL) of Hank's solution (HBSS x 10, 100 mL; EDTA 100 mM, 100 mL; HEPES 1M, 10 mL made to […] with water); recovered cells were pooled and the total volume of recovered fluid was adjusted to 12 mL by addition of Hank's solution. Total cells were counted (Sysmex Microcell Counter F-500, TOPA Medical Electronics Ltd., Japan). Smears were made by diluting recovered fluid (to approximately 10^6 cells/mL) and spinning an aliquot (100 μL) in a centrifuge (Cytospin, Shandon, UK). Smears were air dried, fixed using a solution of fast green in methanol (2 mg/L) for 5 seconds and stained with eosin G (5 seconds) and thiazine (5 seconds) (Diff-Quik, Baxter Dade Ltd, Switzerland) in order to differentiate eosinophils, neutrophils, macrophages and lymphocytes. A total of 500 cells per smear were counted by light microscopy under oil immersion (x 1000).", "key": {"[1]": {"details": "0.1 and 0.3 mg/kg i.t. 1 h before, 24 h and 48 h after OA, 72 h"}, "[2]": {"details": "dose dependence, 72 hours after aerosolized ovalbumin"}}}
{"smiles": "CCCC1C(=O)NC2(C(O)C(C)C)OC(=O)C12", "note": "(stereo not drawn) [Compound 3b, 7-n-propyl-clasto-lactacystin β-lactone]", "values": [{"measurement": "influx of eosinophils in bronchoalveolar lavage fluid", "setting": "[1]", "value": "reduced"}, {"measurement": "influx of total leukocytes in bronchoalveolar lavage fluid", "setting": "[1]", "value": "reduced"}, {"measurement": "lymphocyte count in bronchoalveolar lavage fluid", "setting": "all doses i.t., 72 h after OA", "value": "significant decrease"}, {"measurement": "eosinophil count in bronchoalveolar lavage fluid (FIG. 4)", "setting": "[2]", "value": "dose dependent inhibition"}, {"measurement": "leukocyte count in bronchoalveolar lavage fluid (FIG. 3)", "setting": "[2]", "value": "dose-dependent reduction"}]}
